Results on 18 compounds are retold here after PubChem BioAssay (NCI).

What all share (test): growth of human tumour cells (NCI), 48 h
The test system of assay [1] is ACHN renal.
Assay [2] relates to SN12C renal.
Assay [3] relates to U251 CNS.
Assay [4] concerns T-47D breast.
In assay [5] the test system is LOX IMVI melanoma.
Assay [6] has as its system NCI-H226 lung.
Assay [7] has as its system OVCAR-4 ovarian.
Assay [8] deals with UO-31 renal.
Assay [9] relates to IGROV1 ovarian.
Assay [10] deals with HOP-92 NSCLC.

The structures appear in SMILES notation.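 Results reflect a 48-hour exposure of cells in 96-well plates to compound at five concentrations. GI50 marks 50% less growth. Definition used: TGI = concentration required for complete inhibition of growth.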

`N#Cc1cccc(NC(=O)c2cc(-c3ccc(F)cc3F)ccc2O)c1`: the GI50 in assay [1] is 2.56 µM; in [2], 2.1 µM; in assay [3] it was 2.79 µM; in assay [4], 1.1 µM; in assay [5] it was 2.45 µM; in assay [6], 1.67 µM. Further, the GI50 in assay [7] was 2.11 µM; in assay [8], 2.26 µM; in [9], 2.98 µM; in [10], 0.294 µM. Moreover, the TGI was 7.89 µM in assay [1]; 8.32 µM in [2]; over 100 µM in assay [3]; 6.83 µM in assay [4]; 6.58 µM in [5]; 6.43 µM in [6]. Also, the TGI in [7] was found to be 23 µM; in assay [8] it was 6.99 µM; in [9] it was 68.6 µM; in [10] it was 2.43 µM.
On to `O=C1OC(c2ccco2)=N/C1=C\c1cccc([N+](=O)[O-])c1`, for which the TGI in assay [1], in assay [2], in [3], in assay [4], in assay [5] and in [6] was over 100 µM in each case. Besides, the TGI in assay [7], in [9] and in assay [10] was over 100 µM each time.
Take `C/C(=N\Nc1ccc(Cl)cn1)c1ccccn1`: the GI50 in assay [1] was 0.042 µM; in assay [2] it was 0.134 µM; in assay [3] it was 0.218 µM; in [4] it was 0.0372 µM; in assay [5], 0.113 µM; in assay [6], 0.0939 µM. Also, the GI50 is 0.0485 µM in assay [7], 0.0344 µM in assay [8], 0.0823 µM in assay [9] and 0.134 µM in assay [10]. Further, the TGI in [1] is 27.1 µM; in [2], over 100 µM; in assay [3] it was over 100 µM; in assay [4], over 38.8 µM; in assay [5], over 24.2 µM; in [6], 2.65 µM. For the same compound, the TGI in assay [7] was over 59.4 µM; in [8], 1.86 µM; in assay [9] it was 38.1 µM; in assay [10] it was 33.9 µM.
Consider `Cc1ccc(C(=O)Nc2ccc(CN3CCN(C)CC3)c(C(F)(F)F)c2)cc1C#Cc1cnc(N)c2ccccc12`, for which the GI50 was 0.133 µM in assay [1]; 0.191 µM in assay [2]; 0.348 µM in assay [3]; 0.861 µM in assay [4]; 0.509 µM in [5]; 1.16 µM in assay [6]. Further, the GI50 in [7] is 0.219 µM; in assay [8], 0.241 µM; in [9], 0.103 µM; in assay [10], 0.506 µM. Moreover, the TGI turned out to be 0.631 µM in [1]; 0.917 µM in [2]; 1.12 µM in [3]; 2.3 µM in [4]; 1.09 µM in assay [5]; 6.54 µM in assay [6]. For the same compound, the TGI in [7] came to 1.33 µM; in assay [8], 0.886 µM; in assay [9], 0.814 µM; in assay [10], 2.08 µM.
Regarding `CO[C@H]1C=C[C@@]23c4cc5c(cc4CO[C@]2(O)CN(C)[C@H]3C1)OCO5`, the TGI in assay [1], in assay [2], in assay [3], in assay [4], in assay [5] and in assay [6] was over 100 µM in each case. Besides, the TGI in assay [7], in assay [8], in assay [9] and in assay [10] was over 100 µM throughout.
Consider `Nc1ncn(C2CC(O)C(CO)O2)c(=O)n1` (stereo unspecified), for which the TGI was over 375 µM in assay [1]; over 375 µM in assay [2]; over 307 µM in assay [3]; over 299 µM in assay [4]; over 375 µM in assay [5]; over 331 µM in [6]. The TGI in assay [7] is over 375 µM; in [8] it was over 375 µM; in assay [9], 372 µM; in [10], over 375 µM.
`Cc1ccc(NC(=O)c2sc3nc(C)c(C(O)c4ccccc4)cc3c2N)cc1` (stereo unspecified): the GI50 is 0.658 µM in [1]; 0.664 µM in [2]; 0.384 µM in assay [3]; 0.471 µM in assay [4]; 0.629 µM in assay [5]; 1.27 µM in [6]. Besides, the GI50 is 1.55 µM in [7], 0.72 µM in assay [8], 0.634 µM in assay [9] and 0.857 µM in [10]. In addition, the TGI was 20.2 µM in assay [1]; 25.9 µM in [2]; 22.4 µM in assay [3]; over 58.3 µM in assay [4]; 19 µM in assay [5]; 41.2 µM in [6]. In addition, the TGI is 47 µM in assay [7], 41.6 µM in assay [8], 36.8 µM in assay [9] and 20.4 µM in [10].
Take `Cc1nc(-c2ccccc2)c(-c2ccccc2)s1`: the TGI is 97.9 µM in [1]; over 100 µM in [2]; 29.5 µM in assay [3]; over 100 µM in [4]; 37.1 µM in assay [5]; 42.7 µM in assay [6]. The TGI in assay [7] is over 100 µM; in [8] it was 54.1 µM; in assay [9], 95.3 µM; in assay [10], 83.6 µM.
For `CC[CH2][Sn]([Cl])([Cl])[CH2]CC.Oc1ccccc1C=NCCN=Cc1ccccc1O`, the GI50 is 10.1 µM in assay [1]; 11.3 µM in [2]; 3.11 µM in assay [3]; 1.09 µM in assay [4]; 14.4 µM in assay [5]; 3.13 µM in assay [6]. The GI50 in [7] is 8.21 µM; in assay [8], 5.45 µM; in assay [9], 5.98 µM; in assay [10] it was 2.09 µM. Moreover, the TGI was 21.8 µM in assay [1]; 23.8 µM in assay [2]; 12.5 µM in [3]; 2.6 µM in [4]; 28 µM in [5]; 12.6 µM in [6]. The TGI in assay [7] was 21 µM; in [8], 21.5 µM; in [9] it was 27 µM; in [10] it was 8.8 µM.
Turning to `Cn1cnc([N+](=O)[O-])c1[Se]c1nc(N)nc2c1ncn2C1OC(CO)C(O)C1O` (stereo unspecified), the TGI in assay [1], in [2], in [3], in assay [4], in assay [5] and in assay [6] was over 100 µM each time. For the same compound, the TGI in [7], in assay [8], in assay [9] and in assay [10] was over 100 µM throughout.
Turning to `COc1ccc(-c2nnc(COc3ccc(NC(=O)Nc4ccc(Cl)c(C(F)(F)F)c4)cc3F)o2)cc1`, the GI50 was 2.55 µM in assay [1]; 3.8 µM in assay [2]; 1.93 µM in assay [3]; 3.02 µM in assay [4]; 2.93 µM in assay [5]; 4.93 µM in [6]. Moreover, the GI50 in assay [7] is 2.93 µM; in assay [8] it was 2.88 µM; in assay [9], 4.77 µM; in assay [10], 1.87 µM. For the same compound, the TGI in assay [1] is 10.7 µM; in assay [2], 56 µM; in assay [3], 5.7 µM; in assay [4] it was 14.5 µM; in [5], over 100 µM; in [6] it was 37.3 µM. Also, the TGI in [7] was found to be 13.7 µM; in assay [8], 16.6 µM; in assay [9], 26.4 µM; in assay [10] it was 5.45 µM.
On to `COc1cc2c(c(OC)c1OC)-c1c(cc3c(c1OC)OCO3)C1OC2C(C)C1C` (stereo unspecified) (tested in a mixture with another compound), for which the TGI in assay [1] was over 100 µM; in [2], over 100 µM; in assay [3], over 100 µM; in assay [4], 80.2 µM; in assay [5] it was over 100 µM; in assay [6], over 100 µM. The TGI in assay [7], in assay [8], in assay [9] and in [10] was over 100 µM in each case.
With `CS(=O)(=O)c1cc(=O)c2ccccc2s1`, the TGI in [1] worked out at 5.68 µM; in assay [2], 22.2 µM; in [3], 37.6 µM; in assay [4], 9.41 µM; in assay [5], 17.6 µM; in [6], 20.3 µM. The TGI is 7.8 µM in assay [7], 29.4 µM in [8], 41.2 µM in assay [9] and 3.71 µM in assay [10].
On to `COc1ccc(OC)c(C(=O)c2oc3ccc(Br)cc3c2N)c1`, for which the GI50 is 0.627 µM in [1]; 0.648 µM in assay [2]; 0.397 µM in assay [3]; 0.452 µM in assay [4]; 0.581 µM in assay [5]; 2.38 µM in [6]. In addition, the GI50 in [7] was 3.61 µM; in assay [8], 0.707 µM; in assay [9], 2.13 µM; in assay [10] it was 1.71 µM. Besides, the TGI in assay [1] is over 65.1 µM; in assay [2] it was 29.3 µM; in [3], 16.4 µM; in assay [4] it was over 67.6 µM; in assay [5], 22.4 µM; in assay [6], over 100 µM. The TGI in assay [7] was over 100 µM; in assay [8], over 69.3 µM; in [9], over 87.4 µM; in [10], 38.1 µM.
`Cc1ccc(NC(=O)NCCCOc2ccc(N3C(N)=NC(N)=NC3(C)C)cc2Cl)cc1S(=O)(=O)F`: the GI50 in assay [1] was 49.3 µM; in assay [3] it was 4.04 µM; in [4], 19.8 µM; in assay [5] it was 4.19 µM; in [6], 58.1 µM; in [7], 15.1 µM. Further, the GI50 in [8] is over 100 µM; in [9] it was 0.525 µM; in [10], 18.9 µM. The TGI in assay [1], in assay [3], in [4], in assay [5], in assay [6] and in assay [7] was over 100 µM each time. For the same compound, the values for the TGI in assay [8], in assay [9] and in [10] were over 100 µM, over 100 µM and 75.1 µM, respectively.
As for `CCC(=O)c1c(C(F)(F)F)n([O-])c2ccc(C)cc2[n+]1=O`, the GI50 in assay [1] was 5.02 µM; in assay [2], 7.39 µM; in assay [3], 10.7 µM; in assay [4], 6.51 µM; in [5], 7.47 µM; in assay [6], 10.8 µM. Besides, the GI50 was 24 µM in assay [7], 1.48 µM in assay [8] and 8.69 µM in [10]. The TGI in assay [1] is 14.2 µM; in assay [2], 19.8 µM; in [3] it was over 50 µM; in assay [4], 26.8 µM; in [5], 17.9 µM; in assay [6], over 50 µM. Moreover, the TGI in [7], in [8] and in [10] was over 50 µM in each case.
Turning to `O=C(O)[C@@H]1CCCCN1Cc1cc2cc3c(cc2c2cc(OCc4ccccc4)ccc12)OCO3`, the GI50 was 2.73 µM in [1]; 2 µM in [2]; 3.8 µM in assay [3]; 2.97 µM in [4]; 1.75 µM in [5]; 2.09 µM in [6]. Besides, the GI50 was 4.77 µM in [8], 6.53 µM in [9] and 14.7 µM in [10]. In addition, the TGI in assay [1] was 10.3 µM; in assay [2], 7.8 µM; in assay [3], 15.2 µM; in assay [4] it was 29.5 µM; in [5], 3.56 µM; in assay [6], 5.7 µM. For the same compound, the TGI turned out to be 17.4 µM in assay [8], 21.4 µM in assay [9] and 41.5 µM in assay [10].
Regarding `COC(=O)c1c(C)[nH]c(/C=C2\N=C(c3ccc[nH]3)C=C2OC)c1C`, the GI50 in [1] was 0.189 µM; in assay [2], 0.389 µM; in assay [3], 0.117 µM; in assay [4], 0.816 µM; in [6], 1.66 µM; in [7], 0.571 µM. Further, the GI50 was 0.113 µM in assay [8], 0.147 µM in assay [9] and 0.169 µM in assay [10]. The TGI in [1] was 1.43 µM; in assay [2], over 75.4 µM; in assay [3], 2.49 µM; in assay [4] it was 3.99 µM; in assay [6], 7.92 µM; in assay [7] it was 2.44 µM. The TGI in assay [8] amounted to 0.28 µM; in [9], 1.62 µM; in [10], 0.711 µM.
